# Measured values from PMC11284790, “Targeting Myeloperoxidase Ameliorates Gouty Arthritis: A Virtual Screening Success Story” (Journal of Medicinal Chemistry, 2024).
# Tested on: not listed separately
# Assay: Taurine chloroamine scavenger assay
# Conditions: 15 min at 37 °C, TMB readout
# Protocol: Taurine chloramine was prepared by mixing hypochlorous acid (2.81 mM) with taurine (5 mM), cetyltrimethylammonium chloride (0.03%), NaCl (140 mM), and diethylenetriaminepentaacetic acid (100 μM) in phosphate buffer (20 mM, pH 7.4). The system was kept at 37 °C for 5 min for complete chloramine taurine formation. The compounds were added to this mixture and incubated for 15 min at 37 °C. Taurine chloramine was quantified by the oxidation of TMB (2 mM) catalyzed by iodide (100 μM).[33]
row,Compound,scavenger activity toward taurine chloramine
1,COc1ccc(C(=O)Nc2ccc(-c3nnc(S)o3)cc2)cc1 [RL18],scavenger capacity
2,CCCOc1ccc(C2C(C#N)=C(N)SC(N)=C2C#N)cc1OC [RL26],decreased both taurine chloroamine

# Tested on: human peripheral blood neutrophils
# Assay: Cellular production of HOCl, PMA-activated peripheral blood neutrophils
# Assay type: cell-based
# Conditions: 20 μM compound, 100 nM PMA, 1 h
# Protocol: Human neutrophils were obtained from healthy individuals as previously described.[24] The experiments were approved by the local ethics committee (CEPSH-ICB 1435/18).
# (§1) Measurement of HOCl production by 1 × 10^6 dHL-60 or neutrophils was carried out in PBS (10 mM Na2HPO4, 2 mM KH2PO4, 0.5 mM MgCl2, 1 mM CaCl2, 140 mM NaCl, 5.5 mM dextrose, 100 μM diethylenetriaminepentaacetic acid, 5 mM taurine) in the presence of the compounds (20 μM in 0.3% DMSO) or 0.3% DMSO (control). Cells were activated with phorbol myristate acetate (100 nM) at 37 °C for 1 h. After incubation, cells were centrifuged at 1400 rpm for 10 min, and the supernatant was diluted threefold. Finally, 240 μL of this supernatant was added to 60 μL acetate buffer (400 mM, pH 5.4) containing NaI (100 μM) and TMB (2 mM in DMFO 10%). Taurine chloramine was quantified by TMB oxidation at 655 nm.[33] Inhibition of HOCl production was calculated as the percentage of the control (vehicle).
row,Compound,inhibition of HOCl production in peripheral blood neutrophils
1,COc1ccc(C(=O)Nc2ccc(-c3nnc(S)o3)cc2)cc1 [RL18],no effect

# Molecular target: T1, Human leukocyte MPO (Homo sapiens, UniProt P05164)
# T1 sequence (P05164 279-745 limits assumed): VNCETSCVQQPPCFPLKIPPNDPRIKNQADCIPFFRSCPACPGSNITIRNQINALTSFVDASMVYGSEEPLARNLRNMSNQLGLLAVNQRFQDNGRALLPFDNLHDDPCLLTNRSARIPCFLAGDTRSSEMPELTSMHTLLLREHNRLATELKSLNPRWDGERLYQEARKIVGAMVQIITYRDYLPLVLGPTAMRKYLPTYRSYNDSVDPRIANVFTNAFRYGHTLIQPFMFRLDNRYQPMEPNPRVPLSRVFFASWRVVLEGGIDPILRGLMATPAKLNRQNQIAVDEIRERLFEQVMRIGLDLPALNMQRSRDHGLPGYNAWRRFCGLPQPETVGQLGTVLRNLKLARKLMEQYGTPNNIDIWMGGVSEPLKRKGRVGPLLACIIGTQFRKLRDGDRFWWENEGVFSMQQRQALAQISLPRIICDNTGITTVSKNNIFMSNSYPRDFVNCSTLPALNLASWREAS
# T1 sequence (P05164 165-278 limits assumed): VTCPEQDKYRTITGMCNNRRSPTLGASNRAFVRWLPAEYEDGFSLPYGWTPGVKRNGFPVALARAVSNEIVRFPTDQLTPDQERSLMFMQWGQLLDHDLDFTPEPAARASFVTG
# Assay: MPO peroxidatic activity assay (AmplexRed oxidation)
# Assay type: biochemical
# Set-up: Human leukocyte MPO (EC 1.7.1.11) was purchased from Planta Natural Products; purchased Planta Natural Products (Vienna, Austria); host or cells: human leukocytes
# Conditions: 20 μM compound, 100 pM MPO, 30 μM AmplexRed, 2 μM H2O2, pH 7.4
# Protocol: MPO peroxidase activity was kinetically monitored using the artificial peroxidase substrate AmplexRed, which is oxidized to resorufin and can be detected by fluorescence.[34] Reactions were carried out in phosphate buffer (50 mM, pH 7.4), MPO (100 pM), cetyltrimethylammonium chloride (0.03%), diethylenetriaminepentaacetic acid (100 μM), AmplexRed (30 μM), and compounds (20 μM in 0.3% DMSO). The reaction was started by adding 2 μM hydrogen peroxide. The reaction product was assessed by fluorescence at λex = 530 and λem = 580 nm. The initial velocity was calculated by the slope of the linear regression in the first minutes of reaction. Inhibition is represented as a percentage of the control (vehicle).
row,% Inhibition (at 20 μM) Peroxidatic,Compound
1,INACTIVE,O=c1c2cnc3cc(C(F)(F)F)ccc3c2sc2nncn12 [RL25]
2,INACTIVE,COc1ccc(C(=O)Nc2ccc(-c3nnc(S)o3)cc2)cc1 [RL18]
3,INACTIVE,CCCNc1ncnc2cc(-c3ccc(OC)cc3)sc12 [RL28]

row,Compound,% Inhibition (at 20 μM) Peroxidatic
1,N#CC1=C(N)Oc2c(c(=O)sc3ccccc23)C1c1ccc(F)cc1 (centres unmarked) [RL20],inhibited exclusively the peroxidatic assay
2,CCOC(=O)C(Cc1ccc(O)cc1)NC1=CC(=O)C(=O)c2ccccc21 (centres unmarked) [RL16],inhibited exclusively the peroxidatic assay

# Same assay, conditions: 20 μM compound, 100 pM MPO, 30 μM AmplexRed, 2 μM H2O2, pH 7.4; read-out: % Inhibition (at 20 μM) Peroxidatic
row,inhibition at 20 µM [%],Compound
1,42.1 ± 7.9,CC1CCc2sc3c(c2C1)c1ncnn1c1nnc(S)n31 (centres unmarked) [RL9]
2,24 ± 4.1,O=C1ON=C(c2ccccc2)/C1=C\c1cccc(O)c1 [RL17]
3,29.5 ± 2.9,CC1CCCc2sc3nc(S)n(N)c(=O)c3c21 (centres unmarked) [RL27]
4,59.1 ± 2.9,CCOC(=O)C1=C(N)Oc2cc(O)ccc2C1c1ccc(F)cc1F (centres unmarked) [RL24]
5,78.7 ± 4.2,CCCOc1ccc(C2C(C#N)=C(N)SC(N)=C2C#N)cc1OC [RL26]
6,25.1 ± 3.2,CCc1n[nH]c2c1C(c1ccc(O)c(OC)c1)C(C#N)=C(N)O2 (centres unmarked) [RL23]
7,67.1 ± 8.1,CCOC(=O)C(Cc1ccc(O)cc1)NC1=CC(=O)C(=O)c2ccccc21 (centres unmarked) [RL16]
8,81 ± 15.1,CC1=Nc2ccc(Cl)cc2-c2[nH]c3ccccc3c2N1 [RL1]

row,Compound,inhibition at 20 µM [%]
1,N#CC1=C(N)Oc2c(c(=O)sc3ccccc23)C1c1ccc(F)cc1 (centres unmarked) [RL20],34 ± 4.3

# Same assay, conditions: supplementary csv copy of Table 1
row,% Inhibition (Peroxidatic),Compound
1,INACTIVE,O=c1c2cnc3cc(C(F)(F)F)ccc3c2sc2nncn12 [RL25]
2,INACTIVE,COc1ccc(C(=O)Nc2ccc(-c3nnc(S)o3)cc2)cc1 [RL18]
3,INACTIVE,CCCNc1ncnc2cc(-c3ccc(OC)cc3)sc12 [RL28]

# Same assay, conditions: supplementary csv copy of Table 1; read-out: % Inhibition (Peroxidatic)
row,inhibition at 20 µM [%],Compound
1,42.1 ± 7.9,CC1CCc2sc3c(c2C1)c1ncnn1c1nnc(S)n31 (centres unmarked) [RL9]
2,24 ± 4.1,O=C1ON=C(c2ccccc2)/C1=C\c1cccc(O)c1 [RL17]
3,29.5 ± 2.9,CC1CCCc2sc3nc(S)n(N)c(=O)c3c21 (centres unmarked) [RL27]
4,59.1 ± 2.9,CCOC(=O)C1=C(N)Oc2cc(O)ccc2C1c1ccc(F)cc1F (centres unmarked) [RL24]
5,78.7 ± 4.2,CCCOc1ccc(C2C(C#N)=C(N)SC(N)=C2C#N)cc1OC [RL26]
6,25.1 ± 3.2,CCc1n[nH]c2c1C(c1ccc(O)c(OC)c1)C(C#N)=C(N)O2 (centres unmarked) [RL23]
7,67.1 ± 8.1,CCOC(=O)C(Cc1ccc(O)cc1)NC1=CC(=O)C(=O)c2ccccc21 (centres unmarked) [RL16]
8,81 ± 15.1,CC1=Nc2ccc(Cl)cc2-c2[nH]c3ccccc3c2N1 [RL1]

row,Compound,inhibition at 20 µM [%]
1,N#CC1=C(N)Oc2c(c(=O)sc3ccccc23)C1c1ccc(F)cc1 (centres unmarked) [RL20],34 ± 4.3

# Tested on: dHL-60 cells
# Assay: Cellular production of HOCl, PMA-activated dHL-60 cells
# Assay type: cell-based, human
# Conditions: 20 μM compound, 100 nM PMA, 1 h
# Protocol: Human promyelocytic leukemic cells (HL-60) (BCRJ, RJ, Brazil) were cultivated in RPMI with fetal bovine serum (10%), penicillin (62 μg/mL), and streptomycin (100 μg/mL) at 37 °C in 5% CO2 atmosphere. HL-60 cells were differentiated to neutrophil-like (dHL-60) by DMSO (1.25%) during 4 days.[25]
# as §1
row,Compound,inhibition of HOCl production in dHL-60 cells
1,COc1ccc(C(=O)Nc2ccc(-c3nnc(S)o3)cc2)cc1 [RL18],no effect

# Molecular target: T1, Human leukocyte MPO
# Assay: MPO chlorinating activity assay (taurine chloramine/TMB)
# Assay type: biochemical
# Set-up: Human leukocyte MPO (EC 1.7.1.11) was purchased from Planta Natural Products; purchased Planta Natural Products (Vienna, Austria); host or cells: human leukocytes
# Conditions: 10 nM MPO, 140 mM NaCl, pH 7.4
# Protocol: Chlorinating activity was carried out in phosphate buffer (20 mM, pH 7.4). Compounds (20 μM) were dissolved in 0.03% DMSO, MPO (10 nM), diethylenetriaminepentaacetic acid (100 μM), cetyltrimethylammonium chloride (0.03%), NaCl (140 mM), and taurine (5 mM).[31] This mixture was incubated at 37 °C for 15 min before adding 40 μM hydrogen peroxide. The reaction ran for 8 min and was then stopped by catalase (20 μg/mL). Oxidation of TMB (2 mM) (3,3,5,5-tetramethylbenzidine) by taurine chloroamine catalyzed by iodide (100 μM) was quantified at 650 nm.[33] Results were expressed as a percentage of the control (vehicle). IC50 was calculated by nonlinear regression using the Hill equation present in GraphPad Prism 5 software.
row,IC50 [µM],Compound
1,12,COc1ccc(C(=O)Nc2ccc(-c3nnc(S)o3)cc2)cc1 [RL18]
2,12.6,CCCOc1ccc(C2C(C#N)=C(N)SC(N)=C2C#N)cc1OC [RL26]

# Same assay, conditions: 20 μM compound, 10 nM MPO, 140 mM NaCl, 5 mM taurine, 40 μM H2O2, pH 7.4
row,% Inhibition (at 20 μM) Chlorinating,Compound
1,INACTIVE,O=c1c2cnc3cc(C(F)(F)F)ccc3c2sc2nncn12 [RL25]
2,INACTIVE,COc1cc(/C=N/NC(=O)c2ccoc2C)ccc1OCCN1CCCCC1 [RL15]
3,INACTIVE,CCCNc1ncnc2cc(-c3ccc(OC)cc3)sc12 [RL28]
4,INACTIVE,CCOC(=O)C(Cc1ccc(O)cc1)NC1=CC(=O)C(=O)c2ccccc21 (centres unmarked) [RL16]

row,Compound,% Inhibition (at 20 μM) Chlorinating
1,COc1ccc(C(=O)Nc2ccc(-c3nnc(S)o3)cc2)cc1 [RL18],active against chlorinating activity only
2,N#CC1=C(N)Oc2c(c(=O)sc3ccccc23)C1c1ccc(F)cc1 (centres unmarked) [RL20],INACTIVE

# Same assay, conditions: 20 μM compound, 10 nM MPO, 140 mM NaCl, 5 mM taurine, 40 μM H2O2, pH 7.4; read-out: % Inhibition (at 20 μM) Chlorinating
row,inhibition at 20 µM [%],Compound
1,92 ± 3.2,CC1CCc2sc3c(c2C1)c1ncnn1c1nnc(S)n31 (centres unmarked) [RL9]
2,63 ± 6.2,O=C1ON=C(c2ccccc2)/C1=C\c1cccc(O)c1 [RL17]
3,18.6 ± 1.6,CC1CCCc2sc3nc(S)n(N)c(=O)c3c21 (centres unmarked) [RL27]
4,40.1 ± 5.5,CCOC(=O)C1=C(N)Oc2cc(O)ccc2C1c1ccc(F)cc1F (centres unmarked) [RL24]
5,73 ± 19.7,COc1ccc(C(=O)Nc2ccc(-c3nnc(S)o3)cc2)cc1 [RL18]
6,81 ± 5.8,CCCOc1ccc(C2C(C#N)=C(N)SC(N)=C2C#N)cc1OC [RL26]
7,57.8 ± 13.9,CCc1n[nH]c2c1C(c1ccc(O)c(OC)c1)C(C#N)=C(N)O2 (centres unmarked) [RL23]
8,50.2 ± 4,CC1=Nc2ccc(Cl)cc2-c2[nH]c3ccccc3c2N1 [RL1]

# Same assay, conditions: ratio of % inhibition at 20 μM; ~1 indicates true enzyme inhibitor
row,chlorinating/peroxidatic activity inhibition ratio,Compound
1,high,CC1CCc2sc3c(c2C1)c1ncnn1c1nnc(S)n31 (centres unmarked) [RL9]
2,high,O=C1ON=C(c2ccccc2)/C1=C\c1cccc(O)c1 [RL17]
3,high,COc1ccc(C(=O)Nc2ccc(-c3nnc(S)o3)cc2)cc1 [RL18]

# Same assay, conditions: supplementary csv copy of Table 1
row,% Inhibition (Chlorinating),Compound
1,INACTIVE,O=c1c2cnc3cc(C(F)(F)F)ccc3c2sc2nncn12 [RL25]
2,INACTIVE,COc1cc(/C=N/NC(=O)c2ccoc2C)ccc1OCCN1CCCCC1 [RL15]
3,INACTIVE,CCCNc1ncnc2cc(-c3ccc(OC)cc3)sc12 [RL28]
4,INACTIVE,CCOC(=O)C(Cc1ccc(O)cc1)NC1=CC(=O)C(=O)c2ccccc21 (centres unmarked) [RL16]

row,Compound,% Inhibition (Chlorinating)
1,N#CC1=C(N)Oc2c(c(=O)sc3ccccc23)C1c1ccc(F)cc1 (centres unmarked) [RL20],INACTIVE

# Same assay, conditions: supplementary csv copy of Table 1; read-out: % Inhibition (Chlorinating)
row,inhibition at 20 µM [%],Compound
1,92 ± 3.2,CC1CCc2sc3c(c2C1)c1ncnn1c1nnc(S)n31 (centres unmarked) [RL9]
2,63 ± 6.2,O=C1ON=C(c2ccccc2)/C1=C\c1cccc(O)c1 [RL17]
3,18.6 ± 1.6,CC1CCCc2sc3nc(S)n(N)c(=O)c3c21 (centres unmarked) [RL27]
4,40.1 ± 5.5,CCOC(=O)C1=C(N)Oc2cc(O)ccc2C1c1ccc(F)cc1F (centres unmarked) [RL24]
5,73 ± 19.7,COc1ccc(C(=O)Nc2ccc(-c3nnc(S)o3)cc2)cc1 [RL18]
6,81 ± 5.8,CCCOc1ccc(C2C(C#N)=C(N)SC(N)=C2C#N)cc1OC [RL26]
7,57.8 ± 13.9,CCc1n[nH]c2c1C(c1ccc(O)c(OC)c1)C(C#N)=C(N)O2 (centres unmarked) [RL23]
8,50.2 ± 4,CC1=Nc2ccc(Cl)cc2-c2[nH]c3ccccc3c2N1 [RL1]
